Test results reported in patent US8912123B2, “Safened herbicidal compositions including 4-amino-3-chloro-5-fluoro-6-(4-chloro-2-fluoro-3-methoxyphenyl)pyridine-2-carboxylic acid or a derivative thereof and methods for their use” (Dow AgroSciences, LLC., priority 2012, dated 2014).

System: winter barley (Hordeum vulgare, HORVW)
Experiment: Post-emergence field trial, visual crop injury (ear deformation) in winter barley
Assay type: in vivo
Conditions: for Observed Visual Injury - Ear Deformation (%) 227 DAA HORVW: no safener, 1 L/ha Agnique BL3095, post-emergence field, scale 0-100
Experimental: A post-emergence field trial was conducted under field conditions in Helbigsdorf, Germany. Trial site was located in commercially grown fields of winter barley (Hordeum vulgare, HORVW) using standard herbicide small plot research methodology. Postemergence trial plot was 2.5 meter (m)×5 m (width×length) with 3 replicates per treatment. The crop was grown using normal cultural practices for fertilization, seeding, and maintenance to ensure good growth of the crop and the weeds. Trial treatments included spray formulations containing 4-amino-3-chloro-5-fluoro-6-(4-chloro-2-fluoro-3-methoxy-phenyl)pyridine-2-carboxylic acid (Compound A) at various rates and optionally including cloquintocet mexyl. All treatments in the post-emergence field trials were applied using a bicycle sprayer compressed air/gas sprayer with flat fan nozzles (90°) calibrated to apply 200 L/ha spray volume at approximately 250 kPa nozzle pressure. The spray formulations for Trials 1-4 listed in Table 1 included Dow AgroSciences testing formulation Compound A (listed in acid equivalent per hectare (g ae/ha)), Agnique BL3095 (Cognis, France; listed as liters of product per hectare (L pr/ha)), and optionally cloquintocet mexyl (listed as grams of active ingredient per hectare (g ai/ha)). The spray solutions were mixed in water at the levels indicated in Table 1 to achieve the desired rates based on a unit area of application (hectare). Data for observed visual injury is provided for 227 days after application (DAA) in Table 1. Visual crop injury (ear deformation) was scored on a scale of 0 to 100 percent where 0 corresponds to no injury and 100 correspond to damage at all plants. All treatment results, both for the single product and mixture, are with 4 replicates. The trial sites had naturally occurring populations of weeds. The weed spectrum included loose silky-bent ([…]).

SMILES | Observed Visual Injury - Ear Deformation (%) 227 DAA HORVW (Compound A 10 g ae/ha) | Observed Visual Injury - Ear Deformation (%) 227 DAA HORVW (Compound A 20 g ae/ha) | Observed Visual Injury - Ear Deformation (%) 227 DAA HORVW (Compound A 30 g ae/ha) | Safening of the compound of formula I in winter barley (conclusion from Table 1, winter barley)
COc1c(Cl)ccc(-c2nc(C(=O)O)c(Cl)c(N)c2F)c1F [Compound A, 4-amino-3-chloro-5-fluoro-6-(4-chloro-2-fluoro-3-methoxy-phenyl)pyridine-2-carboxylic acid] | 27% | 30% | 30% | –
CCCCCC(C)OC(=O)COc1ccc(Cl)c2cccnc12 (stereo not shown) [cloquintocet-mexyl, reference compound] | – | – | – | safened
